The text below walks through data of patent US20090299034A1, “Collagen-related peptides” (priority 2007, published 2009).

Test [1] deals with washed platelets. The test can be described thus: Inhibition of platelet aggregation induced by collagen or CRP trimer SEQ ID 145. As to conditions: GPIIb/IIIa antagonist at 10, 100 and 1000 nM, 5 min pre-incubation. The class given is cell-based, human.
The test system of test [2] is washed platelets. The test can be described thus: Human platelet aggregation assay. It counts as cell-based. To be noted: for EC50 ± SEM platelet aggregation: Table 3. How it is done:
Human platelet-rich plasma (PRP) concentrate from healthy volunteers was purchased from Biological Specialties, Inc. (Colmar, Pa.). […] The PRP was centrifuged at 730 g for 15 min. The resulting platelet pellet was washed twice in CGS buffer (13 mM sodium citrate, 30 mM glucose, 120 mM NaCl, pH 6.5) containing 1 U/mL apyrase (grade V, Sigma-Aldrich) and resuspended in Tyrode's buffer (140 mM NaCl, 2.7 mM KCl, 12 mM NaHCO3, 0.76 mM Na2HPO4, 5.5 mM dextrose, 5.0 mM Hepes, 0.2% BSA, pH 7.4). The “washed” platelets were diluted to 3×10^8 platelets/mL and kept >45 min at 37° C. before use.
For the assay, 105 μL of washed platelets, 2 mM CaCl2 and […] of fibrinogen were added to a 96-well microtiter plate. Platelet aggregation was initiated by the addition of serial concentrations of native collagen fibrils (equine type I; 92% identity with human collagen sequence; Chrono-log Corp., Havertown, Pa.) or test peptides. Buffer was added to one set of control wells. The assay plate was stirred constantly and intermittently placed in a microplate reader (Softmax, Molecular Devices, Menlo Park, Calif.) to read optical density (650 nm) at 0 and 5 min after the addition of the compound solutions. Aggregation was calculated as the decrease in optical density between the time-0 and 5-min measurements and expressed as percent of aggregation.
Peptides were dissolved in PBS (pH 7) or water (final pH 5) to a concentration of 2 mg/mL. Some samples were heated in a water bath (70° C.) for 10 min, filtered through a 0.45-μm filter and incubated for 24 h or 7 days at 4° C. […] (H+F) and re-annealed at 4° C.

Regarding `O=C(O)C[C@H](NC(=O)[C@@H]1CCCN(C(=O)CCC2CCNCC2)C1)c1cccnc1` [elarofiban], in test [1], the “inhibition of platelet aggregation induced by CRP trimer having SEQ ID 145” value was “dose-dependent inhibition” and the “inhibition of platelet aggregation induced by collagen” value is recorded as “dose-dependent inhibition”.
Take (Pro-Xaa-Gly)10 [SEQ ID 154]: in test [2] (Example 4), the “induction of platelet aggregation” value is recorded as “failed to aggregate platelets”. The “stimulation of platelet aggregation” value in test [2] (Example 6, FIG. 1) is on record as “not effective”. Also, in test [2] (PBS, H + F, pH 7, incubation 24 h), the “EC50 ± SEM platelet aggregation” value is given as “Not Active”.
As for Collagen, in test [2] (Example 6, FIG. 1, Table 4), the “EC50 values (±SEM) platelet aggregation” value was 0.56 ± 0.09 µg/mL. In test [2] (native collagen fibrils, no peptide preparation), the “EC50 ± SEM platelet aggregation” value worked out at 0.25 µg/mL.
